# Measured values taken from patent publication US9993465B2, “2,5-disubstituted-pyridyl nicotinic ligands, and methods of use thereof” (Georgetown University, priority 2011, dated 2018).
# pKi: −log10 of the molar value. Where two headings read alike, the source gives them in different places.
# Assays:
# [1] = target: native nAChRs of rat forebrain (Rattus norvegicus, UniProt P09483+P12390); type: binding; details: Table 1
# Procedure: (§1) To determine selectivities of these compounds in binding assays among the three predominant nAChR subtypes, α3β4, α4β2 and α7, the ratios of Ki values (α3β4/α4β2 and α7/α4β2) were determined.
# Briefly, cultured cells at >80% confluence were removed from their flasks (80 cm^2) with a disposable cell scraper and placed in 10 mL of 50 mM Tris.HCl buffer (pH 7.4, 4° C.). The cell suspension was centrifuged at 10,000×g for 5 min and the pellet was collected. The cell pellet was then homogenized in 10 mL buffer with a polytron homogenizer and centrifuged at 36,000 g for 10 min at 4° C. The membrane pellet was resuspended in fresh buffer, and aliquots of the membrane preparation were used for binding assays. […] Bound and free ligands were separated by vacuum filtration through Whatman GF/C filters treated with 0.5% polyethylenimine. The filter-retained radioactivity was measured by liquid scintillation counting. Specific binding was defined as the difference between total binding and nonspecific binding. Data from competition binding assays were analyzed using Prism 5 (GraphPad Software, San Diego, Calif.).
# We measured the in vitro binding affinities of the ligands for defined receptor subtypes (α2β2, α2β4, α3β2, α3β4, α4β2, α4Γ4, α6β2, α6β4, and α7) expressed in stably transfected cell lines. […] Rat forebrain homogenates were included to allow comparison between the heterologous and native α4β2 and α7 nAChRs.
# ferrets = assay: Emesis studies in ferrets; type: in vivo, ferret (Mustela putorius furo)
# Procedure: Effects of (S)-15 in causing nausea and emesis were assessed in a ferret model. For comparison, varenicline was also tested. […] In general, all animals remained alert and active with periods of inactivity that mirrored their baseline behavior within the 1 hr observation period.
# In one animal, this behavior was accompanied by oral stereotypy (licking), whereas in two animals it was interspersed by episodes of backward walking. On the average, these behaviors manifested around ˜2.20 min. […] Occasionally, when animals tried to ambulate they would immediately cease their movement after each attempt. This would, be followed by a momentary increase in breathing, giving the impression that the animal was in distress.
# Studies were undertaken in male ferrets (Mustela putorius furo) weighing 0.9-1.5 kg (Marshall Farms, N.Y.). They were housed in controlled conditions of room temperature (22° C.) and light (12:12 h light-dark cycle) with free access to food and water. Prior to each experiment, food was withheld overnight, whereas water was provided ad libitum.
# Emetic testing consisted of placing animals individually in a polycarbonate enclosure. Following a 30 min acclimation period, each animal randomly received a subcutaneus injection of varencline or compound (S)-15 (YL-1-127) in the subscapular region. A 60 min observation and video recording followed the drug administration. […] All drugs were dissolved in sterile saline.
# Video analysis of the incidence of emesis, stereotypical behaviors (such as licking, mouth-clawing, backward walking, gagging, and burying of the head in cage) and GI side effects (diarrhea) was done off-line. Stereotypical behaviors are thought to be reflective of a subjective sensation of nausea. The emetic index of a drug was calculated as the percentage of animals displaying emesis (one or more times in 60 min) divided by the total number of animals tested. […]
# The Nausea Index for the stereotypical behaviors was derived from the mean±SEM number of nausea behaviors observed among all animals in a given treatment group. Significance was determined at p<0.05.
# human α4β2 nAChRs = human α4β2 nAChRs (Homo sapiens (Human), UniProt P17787+P43681); assay: 86Rb+ efflux assay, agonist activity, α4β2; type: cell-based
# Procedure: (§2) Their agonist activities were assessed by measuring stimulated ^86Rb^+ efflux from stably transfected cells, either expressing human α4β2 nAChRs or rat α3β4 receptors.
# (§3) The cell lines expressing defined rat nAChR subtypes were established previously by stably transfecting HEK 293 cells with rat nAChR subunit genes. The cell line expressing human α4β2 nAChRs, YXα4β2H1, was established recently. These cell lines were maintained in minimum essential medium (MEM) supplemented with 10% fetal bovine serum, 100 units/mL penicillin G, […] and selective antibiotics at 37° C. with 5% CO2 in a humidified incubator. Fetal bovine serum was provided by Gemini Bio-Products (Woodland, Calif.). Tissue culture medium and antibiotics were obtained from Invitrogen Corporation (Carlsbad, Calif.), unless otherwise stated.
# Functional properties of compounds at nAChRs expressed in the transfected cells were measured using ^86Rb^+ efflux assays as described previously. In brief, cells expressing human α4β2 or rat α3β4 nAChRs were plated into 24-well plates coated with poly-D-lysine. The plated cells were grown at 37° C. for 18 to 24 hour to reach 85-95% confluence. The cells were then incubated in growth medium (0.5 mL/well) containing ^86Rb^+ (2 μCi/mL) for 4 hour at 37° C. The loading mixture was then aspirated, and the cells were washed four times with 1 mL buffer (15 mM HEPES, 140 mM NaCl, 2 mM KCl, 1 mM MgSO4, 1.8 mM CaCl2, 11 mM Glucose, pH 7.4). One mL of buffer with or without compounds to be tested was then added to each well. After incubation for 2 min, the assay buffer was collected for measurements of ^86Rb^+ released from the cells. Cells were then lysed by adding 1 ml of 100 mM […] to each well, and the lysate was collected for determination of the amount of ^86Rb^+ that was in the cells at the end of the efflux assay. Radioactivity of assay samples and lysates was measured by liquid scintillation counting. Total loading (cpm) was calculated as the sum of the assay sample and the lysate of each well. The amount of ^86Rb^+ efflux was expressed as a percentage of ^86Rb^+ loaded. […] For obtaining EC50 and Emax values, stimulation curves were constructed in which 8 different concentrations of a ligand were included in the assay. […] EC50, Emax and IC50(10′) values were determined by nonlinear least-squares regression analyses (GraphPad, San Diego, Calif.).
# The functional properties of the ligands were determined by ^86Rb^+ efflux assays in cells expressing α3β4 and α4β2 nAChR subtypes. The functional activity of each ligand was measured for its agonism, antagonism and desensitization ability. Agonist activity for each of the ligands was tested at eight different concentrations. […]
# rat α4β2 nAChR = rat α4β2 nAChR (Rattus norvegicus (Rat), UniProt P09483+P12390); type: binding; details: versus Sazetidine-A
# Procedure: as §1, §3
# Briefly, cultured cells at >80% confluence were removed from their flasks (80 cm^2) with a disposable cell scraper and placed in 10 mL of 50 mM Tris.HCl buffer (pH 7.4, 4° C.). […] The filter-retained radioactivity was measured by liquid scintillation counting. […] Data from competition binding assays were analyzed using Prism 5 (GraphPad Software, San Diego, Calif.).
# We measured the in vitro binding affinities of the ligands for defined receptor subtypes (α2β2, α2β4, α3β2, α3β4, α4β2, α4Γ4, α6β2, α6β4, and α7) expressed in stably transfected cell lines. […]
# rat α3β4 nAChRs = rat α3β4 nAChRs (Rattus norvegicus (Rat), UniProt P04757+P12392); assay: 86Rb+ efflux assay, agonist activity, α3β4; type: cell-based
# Procedure: as §2
# as §3, with “Tissue culture medium and antibiotics were obtained from Invitrogen Corporation (Carlsbad, Calif.), unless otherwise stated.” left out
# Functional properties of compounds at nAChRs expressed in the transfected cells were measured using ^86Rb^+ efflux assays as described previously. […] Radioactivity of assay samples and lysates was measured by liquid scintillation counting. Total loading (cpm) was calculated as the sum of the assay sample and the lysate of each well. The amount of ^86Rb^+ efflux was expressed as a percentage of ^86Rb^+ loaded. […] EC50, Emax and IC50(10′) values were determined by nonlinear least-squares regression analyses (GraphPad, San Diego, Calif.).
# The functional properties of the ligands were determined by ^86Rb^+ efflux assays in cells expressing α3β4 and α4β2 nAChR subtypes. […]
Structure (SMILES),pKi [1],also measured
"CCCCC#Cc1cnc(C)c(OC[C@H]2CCN2)c1 [(R)-15, (R)-3-(azetidin-2-ylmethoxy)-5-(hex-1-ynyl)-2-methylpyridine]",5.37,
"CCCCC#Cc1cnc(C)c(OC[C@H]2CCCN2)c1 [(R)-16, (R)-5-(hex-1-ynyl)-2-methyl-3-(pyrrolidin-2-ylmethoxy) pyridine]",3.96,
"CCCCC#Cc1cnc(C)c(OC[C@@H]2CCN2)c1 [(S)-15, (S)-3-(azetidin-2-ylmethoxy)-5-(hex-1-ynyl)-2-methylpyridine]",7.28,"emetic episodes or stereotypical behaviors indicative of nausea (ferrets; 1-30 mg/kg s.c., 1 hr observation): did not elicit any emetic episodes or stereotypical behaviors that are indicative of nausea"
"CCCCC#Cc1cnc(C)c(OC[C@@H]2CCCN2)c1 [(S)-16, (S)-5-(hex-1-ynyl)-2-methyl-3-(pyrrolidin-2-ylmethoxy)pyridine]",6.27,agonist activity at α4β2 nAChRs (human α4β2 nAChRs; result in words): didn't show detectable agonist activity
"Cc1ncc(C#CCCCCO)cc1OC[C@@H]1CCN1 [(S)-17, (S)-6-(5-(azetidin-2-ylmethoxy)-6-methylpyridin-3-yl)hex-5-yn-1-ol]",7.96,reduction in binding affinity for α4β2 nAChRs (rat α4β2 nAChR): 70 fold
"Cc1ncc(C#CCCCCCl)cc1OC[C@@H]1CCN1 [(S)-21, (S)-3-(azetidin-2-ylmethoxy)-5-(6-chlorohex-1-ynyl)-2-methylpyridine]",7.49,agonist activity at α4β2 nAChRs (human α4β2 nAChRs; result in words): didn't show detectable agonist activity
"Cc1ncc(C#CCCCCF)cc1OC[C@@H]1CCN1 [(S)-22, (S)-3-(azetidin-2-ylmethoxy)-5-(6-fluorohex-1-ynyl)-2-methylpyridine]",,agonist activity at α4β2 nAChRs (human α4β2 nAChRs; result in words): didn't show detectable agonist activity
"Cc1ncc(C#CC2CC2)cc1OC[C@@H]1CCN1 [(S)-27, (S)-3-(azetidin-2-ylmethoxy)-5-(cyclopropylethynyl)-2-methylpyridine]",7.51,
"CN1CCC[C@H]1c1cccnc1 [(−)-Nicotine, (−)-nicotine, reference compound]",,agonist activity at α4β2 nAChRs (human α4β2 nAChRs): full agonist activities; agonist activity at α3β4 nAChRs (rat α3β4 nAChRs): full agonist activities
"OCCCCC#Cc1cncc(OC[C@@H]2CCN2)c1 [Sazetidine-A, reference compound]",9.77,
"c1cnc2cc3c(cc2n1)[C@@H]1CNC[C@H]3C1 [Varenicline, varenicline]",8.96,"emetic episodes (ferrets; 0.5 mg/kg s.c.): no emetic episodes were observed; time at which nausea behaviors manifested, on the average (ferrets; 0.5 mg/kg s.c.): ~2.20 min"
